From the NIST ThermoML archive (doi:10.1016/j.fluid.2011.08.009)
± gives the expanded uncertainty stated by the source.

Details: Liquid, Closed cell (Static) method

For `CCC(C)O` (stereo not drawn) [butan-2-ol], the “vapor or sublimation pressure” value (323.18 K) was 10.74 ± 0.16 kPa, the “vapor or sublimation pressure” value (329.22 K) was 14.55 ± 0.21 kPa and the “vapor or sublimation pressure” value (342.83 K) was 28.43 ± 0.28 kPa. The “vapor or sublimation pressure” value (352.68 K) was 44.66 ± 0.35 kPa.
For `CCCCCCCCCCCC` [dodecane], the “vapor or sublimation pressure” value (342.18 K) was 0.36 ± 0.1 kPa and the “vapor or sublimation pressure” value (352.68 K) was 0.75 ± 0.1 kPa.
For `CCCCCC` [hexane], the “vapor or sublimation pressure” value (329.22 K) was 65.63 ± 0.67 kPa.
With `CCCO` [propan-1-ol] the “vapor or sublimation pressure” value (313.17 K) was 6.99 ± 0.19 kPa, the “vapor or sublimation pressure” value (342.83 K) was 31.45 ± 0.24 kPa and the “vapor or sublimation pressure” value (352.68 K) was 49.8 ± 0.4 kPa.
In the case of `O` [water], the “vapor or sublimation pressure” value (313.17 K) is reported as 7.36 ± 0.14 kPa, the “vapor or sublimation pressure” value (323.18 K) is reported as 12.18 ± 0.19 kPa and the “vapor or sublimation pressure” value (342.83 K) is reported as 30.65 ± 0.22 kPa.
